Key:
HIF hydroxylase = assay: capture assay for inhibitors of HIF modification (pVHL capture); format: biochemical; settings: result in words; screening at 2 mM of the potential inhibitor, RCC4 cell extract, 100 μM FeCl2
Protocol: In vitro screening of potential inhibitors of HIF modification was performed using a capture assay. A Gal/HIF-1α/VP16 fusion protein expressing HIF-1α residues 549-582 was prepared by IVTT (see British Application No. 0118952.1) and used as a substrate in the assay. The unlabelled substrate was immunopurified on beads, washed, and aliquots incubated in the presence of RCC4 cell extract, with 100 μM FeCl2 and 2 mM of the potential inhibitor. The inhibitors were either dissolved in DMSO or Tris as indicated. Controls, where no inhibitor but the equivalent amount of DMSO or Tris was added, were also performed. After washing, the beads were assayed for their ability to interact with 35-S labelled pVHL IVTT. Hydroxylation of the fusion protein by HIF hydroxylase present in the cell extract leads to the ability to capture the labelled pVHL and the amount of labelled protein bound to the fusion protein can then be measured to determine relative HIF hydroxylase activity. FIGS. 1 to 5 show HIF hydroxylase activity in the presence of a particular inhibitor relative to that seen in the absence of the inhibitor (the DMSO/Tris control).

HIF hydroxylases = assay: assays in which the compound replaces 2-oxoglutarate as co-substrate; format: biochemical; settings: compared with 2-oxoglutarate under analogous conditions
Description: Another aspect of the invention concerns analogues of 2-oxoglutarate that act as improved (relative to 2-oxoglutarate) co-substrates for the HIF hydroxylases. Such a compound is 3-fluoro 2-oxoglutarate.

Row | SMILES | activity as modulator of HIF prolyl hydroxylase (HIF hydroxylase) | level of HIF hydroxylation (HIF hydroxylases)
1 | O=C(O)CC1CC(=O)N(O)C1=O (centres unmarked) [Is52, (1-hydroxy-2,5-dioxo-pyrrolidin-3-yl) acetic acid] | highly active | –
2 | O=C(O)CC(F)C(=O)C(=O)O (centres unmarked) [3-fluoro 2-oxoglutarate, 3-fluoro-2-oxoglutaric acid] | – | higher level of HIF hydroxylation

From patent US7662854B2, “HIF hydroxylase inhibitors” (ISIS Innovation Limited, priority 2002, dated 2010)
